Reference: US20240025880A1 (CHIESI FARMACEUTICI S.P.A., priority 2020, published 2024)
Like-named read-outs stand apart in the source and are kept apart here.

Columns and labels:
h P2X3 = target: T1, h P2X3 (Homo sapiens, UniProt P56373); experiment: In vitro electrophysiology assay for P2X3 (automated whole-cell patch clamp, α,β-MeATP agonist); format: cell-based; settings: 800 nM α,β-MeATP, peak current, read-out: h P2X3 (pIC50 range of activity) (converted)
T1 sequence (P56373 1-397): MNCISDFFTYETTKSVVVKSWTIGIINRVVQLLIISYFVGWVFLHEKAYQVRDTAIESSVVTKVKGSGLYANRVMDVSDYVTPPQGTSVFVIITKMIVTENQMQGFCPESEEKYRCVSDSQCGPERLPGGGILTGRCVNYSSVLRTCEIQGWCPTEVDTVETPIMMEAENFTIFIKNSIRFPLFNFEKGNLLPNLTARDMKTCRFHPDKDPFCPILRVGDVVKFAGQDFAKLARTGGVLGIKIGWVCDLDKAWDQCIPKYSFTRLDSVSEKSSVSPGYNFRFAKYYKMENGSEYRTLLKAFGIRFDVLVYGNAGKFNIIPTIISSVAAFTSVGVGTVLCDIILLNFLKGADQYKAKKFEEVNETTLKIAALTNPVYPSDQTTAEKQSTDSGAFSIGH
How it was run: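 Automated whole-cell patch clamp of P2X3-expressing cells at −60 mV, room temperature, pH 7.4 bath with CsF internal solution. Antagonist preincubated 10 min, then co-applied with 800 nM α,β-MeATP; peak current inhibition versus second agonist response, ten concentrations, IC50 from four-parameter fit.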

h P2X2/3 = target: T2, h P2X2/3 (Homo sapiens, UniProt P56373+Q9UBL9); experiment: In vitro electrophysiology assay for P2X2/3 (same protocol, 10 μM ATP agonist); format: cell-based; settings: Table 3, mean current seven seconds after agonist, read-out: h P2X2/3 (pIC50 range of activity) (converted)
T2 construct: host or cells: cells not described; same protocol as the P2X3 assay
T2 sequence (P56373 1-397): T1 sequence (P56373 1-397)
T2 sequence (Q9UBL9 1-471): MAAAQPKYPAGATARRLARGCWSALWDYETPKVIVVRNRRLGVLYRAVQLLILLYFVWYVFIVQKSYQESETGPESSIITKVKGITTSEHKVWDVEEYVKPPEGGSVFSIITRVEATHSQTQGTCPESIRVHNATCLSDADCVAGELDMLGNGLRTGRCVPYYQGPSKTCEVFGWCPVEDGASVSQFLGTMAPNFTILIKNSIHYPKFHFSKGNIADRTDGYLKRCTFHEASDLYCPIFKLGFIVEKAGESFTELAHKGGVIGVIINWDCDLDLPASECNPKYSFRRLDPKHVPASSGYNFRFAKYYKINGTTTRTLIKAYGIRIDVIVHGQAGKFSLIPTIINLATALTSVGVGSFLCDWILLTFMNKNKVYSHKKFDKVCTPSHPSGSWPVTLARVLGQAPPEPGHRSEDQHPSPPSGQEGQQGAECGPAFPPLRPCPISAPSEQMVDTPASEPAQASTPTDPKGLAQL
Protocol: Cells expressing P2X3 receptors were grown according to standard practice and maintained at 37° C. in a 5% humidified CO2 atmosphere. The cells were seeded into T175 flask 2 days prior to the day of the assay and dissociated from the flasks using TrypLE when grown to confluence of 80-90%. The dissociated cells were resuspended in serum free media at a cell density of 3×10^6 cells/ml and loaded onto the Sophion Qube automated patch-clamp system. The extracellular assay buffer contained 145 mM NaCl, 4 mM KCl, 2 mM CaCl2, 1 mM MgCl2, 10 mM HEPES, and 10 mM glucose at pH 7.4. The intracellular assay solution contained 140 mM CsF, 10 mM NaCl, 10 mM EGTA, 10 mM HEPES at pH 7.2. Agonist stock solutions were prepared in H2O and diluted in bath solution prior to use. All antagonists were prepared as 10 mM stock solutions in DMSO and diluted in bath solution prior to use. All experiments were performed under the whole-cell patch clamp configuration at room temperature with 384 individual cells being voltage clamped at −60 mV simultaneously on the Sophion Qube instrument. Two baseline responses were established with the application of α,β-MeATP (800 nM), with the subsequent agonist applications being washed out using extracellular assay buffer containing 0.5 U/ml apyrase. Following the second agonist application, antagonist was incubated in the absence of α,β-MeATP for 10 minutes. After antagonist preincubation, 800 nM α,β-MeATP and antagonist were co-administered to determine the inhibitory effect of the antagonist. One concentration of an antagonist was assessed against a single cell, with different concentrations of the antagonist applied to other cells on the 384 recording substrate. The control P2X3 current amplitude was taken from the peak current amplitude from the second agonist response prior to preincubation with antagonist. The peak P2X3 current amplitude in the presence of antagonist was used to calculate the inhibitory effect at each concentration of the antagonist according to the following equation: […]
In vitro Electrophysiology Assay for P2X2/3
Representative compound of the present invention have been also tested for P2X2/3 receptor.
The same assay protocol was used for the P2X2/3 assay as the P2X3 assay with two modifications: 1) 10 μM ATP was used as the agonist; and 2) the mean current amplitude was measured seven seconds after the application of agonist.

| IC50 (h P2X3; Table 2) | IC50 (h P2X3; Table 3) | IC50 (h P2X2/3) | Compound |
| --- | --- | --- | --- |
| < 316 nM | < 316 nM | 3160 to 31600 nM | Cc1nnc(C(C)Nc2ncnc3c(OCC(F)F)cc(-c4ccc(F)cn4)cc23)s1 (single isomer, unassigned; enantiomer 1) [Example 6, Single enantiomer 1 of 8-(2,2-difluoroethoxy)-6-(5-fluoro-2-pyridyl)-N-[1-(5-methyl-1,3,4-thiadiazol-2-yl)ethyl]quinazolin-4-amine] |
| < 316 nM | < 316 nM | 316 to 3160 nM | C[C@@H](Nc1ncnc2c(OCC(F)F)cc(-c3ccc(F)cc3)cc12)c1cnc(C(F)(F)F)nc1 [Example 2, (R)-8-(2,2-difluoroethoxy)-6-(4-fluorophenyl)-N-(1-(2-(trifluoromethyl)pyrimidin-5-yl)ethyl)quinazolin-4-amine] |
